Measured values from US20070129371A1, “Novel ethylenediamine derivatives” (Daiichi Pharmaceutical Co., Ltd., priority 2002, published 2007).
Where a name gives a salt, the structure may show the parent alone.

Target: T1, human FXa (Homo sapiens, UniProt P00742)
T1 construct: purchased Enzyme Research Laboratories, Inc
Assay: Determination of human FXa-inhibiting effect (IC50 value)
Type: biochemical
Details: S-2222 chromogenic substrate, absorbance at 405 nm, Tris buffer pH 7.4, room temperature
Method: A 5% DMSO solution (10 μl) of each test compound, the concentrations of which had been suitably set stepwise, and Tris buffer (100 mM Tris, 200 mM potassium chloride, 0.2% BSA, pH 7.4) (40 μl) and 0.0625 U/ml human FXa (Enzyme Research Laboratories, Inc., dissolved in and diluted with Tris buffer) (10 μl) were put in each of the wells of a 96-well microplate. A 750 μM aqueous solution (40 μl) of S-2222 (Chromogenix Co.) was added. Absorbance at 405 nm was measured for 10 minutes at room temperature to determine an increase in absorbance (ΔOD/min). As a control, Tris buffer was used in place of the test compound.
The percent inhibition (%) calculated using the following equation at the final concentration of the test compound and the final concentration of the test compound were plotted on the ordinate and abscissa of logarithmic probability paper, respectively, to determine the 50% inhibition concentration (IC50 value) Percent inhibition (%)=[1−(ΔOD/min of test compound)÷(ΔOD/min of control)]×100

T1 sequence (P00742 235-488 limits assumed): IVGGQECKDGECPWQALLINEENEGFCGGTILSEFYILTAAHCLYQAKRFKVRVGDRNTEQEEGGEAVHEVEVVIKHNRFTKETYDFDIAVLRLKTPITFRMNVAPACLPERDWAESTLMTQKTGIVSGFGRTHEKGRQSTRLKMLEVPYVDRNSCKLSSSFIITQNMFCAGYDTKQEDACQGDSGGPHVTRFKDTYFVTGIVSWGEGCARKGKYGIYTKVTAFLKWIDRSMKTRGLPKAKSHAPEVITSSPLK
T1 sequence (P00742 41-179 partner limits assumed): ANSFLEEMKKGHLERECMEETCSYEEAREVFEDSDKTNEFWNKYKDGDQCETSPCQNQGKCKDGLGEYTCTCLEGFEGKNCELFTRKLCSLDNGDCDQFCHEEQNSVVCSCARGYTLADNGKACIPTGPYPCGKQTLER

Row | Structure (SMILES) | IC50 [nM]
1 | CN1CCc2nc(C(=O)NC(CNC(=O)C(=O)Nc3ccc(Cl)cn3)C(=O)N3CCS(=O)(=O)CC3)sc2C1 (centres unmarked) [Example 2, N^1-(5-Chloropyridin-2-yl)-N^2-(3-(1,1-dioxothiomorpholin-4-yl)-2-{[(5-methyl-4,5,6,7-tetrahydrothiazolo[5,4-c]pyridin-2-yl)carbonyl]amino}-3-oxopropyl)ethanediamide hydrochloride] | 7.1
2 | CN1CCc2nc(C(=O)N[C@@H](CNC(=O)C(=O)Nc3ccc(Cl)cn3)C(=O)N(C)C)sc2C1 [Example 26, N^1-(5-Chloropyridin-2-yl)-N^2-((2S)-3-(dimethylamino)-2-{[(5-methyl-4,5,6,7-tetrahydrothiazolo[5,4-c]pyridin-2-yl)carbonyl]amino}-3-oxopropyl)ethanediamide hydrochloride] | 2.4
3 | C[C@@H](NC(=O)C(=O)Nc1ccc(Cl)cn1)[C@H](NC(=O)c1nc2c(s1)CN(C)CC2)C(=O)N(C)C [Example 66, N^1-(5-Chloropyridin-2-yl)-N^2-((1R,2S)-3-(dimethylamino)-1-methyl-2-{[(5-methyl-4,5,6,7-tetrahydrothiazlo [5,4-c]pyridin-2-yl)carbonyl]amino}-3-oxopropyl)ethanediamide hydrochloride] | 2

Now those with a lower IC50, led by results:

Row | IC50 [nM] | Structure (SMILES)
4 | 1.5 | CN1CCc2nc(C(=O)N[C@@H](CNC(=O)C(=O)Nc3ccc(Br)cn3)C(=O)N(C)C)sc2C1 [Example 37, N^1-(5-Bromopyridin-2-yl)-N^2-((2S)-3-(dimethylamino)-2-{[(5-methyl-4,5,6,7-tetrahydrothiazolo[5,4-c]pyridine-2-yl)carbonyl]amino}-3-oxopropyl)ethanediamide hydrochloride]
5 | 0.81 | CN1CCc2nc(C(=O)N[C@@H](CNC(=O)C(=O)Nc3ccc(Br)cc3)C(=O)N(C)C)sc2C1 [Example 38, N^1-(4-Bromophenyl)-N^2-((2S)-3-(dimethylamino)-2-{[(5-methyl-4,5,6,7-tetrahydrothiazolo[5,4-c]pyridin-2-yl)carbonyl]amino}-3-oxopropyl)ethanediamide hydrochloride]
6 | 0.86 | CN1CCc2nc(C(=O)N[C@@H](CNC(=O)C(=O)Nc3ccc(Cl)cc3)C(=O)N(C)C)sc2C1 [Example 39, N^1-(4-Chlorophenyl)-N^2-((2S)-3-(dimethylamino)-2-{[(5-methyl-4,5,6,7-tetrahydrothiazolo[5,4-c]pyridin-2-yl)carbonyl]amino}-3-oxopropyl)ethanediamide hydrochloride]
7 | 1.3 | CN1CCc2nc(C(=O)N[C@@H](CNC(=O)C(=O)Nc3ccc(Cl)s3)C(=O)N(C)C)sc2C1 [Example 40, N^1-(5-Chlorothien-2-yl)-N^2-((2S)-3-(dimethylamino)-2-{[(5-methyl-4,5,6,7-tetrahydrothiazolo[5,4-c]pyridin-2-yl)carbonyl]amino}-3-oxopropyl)ethanediamide hydrochloride]
8 | 1.8 | CN1CCc2nc(C(=O)N[C@@H](CNC(=O)C(=O)Nc3ccc(Cl)cc3)c3cnco3)sc2C1 [Example 62, N^1-(4-Chlorophenyl)-N^2-[(2S)-2-{[(5-methyl-4,5,6,7-tetrahydrothiazolo[5,4-c]pyridin-2-yl)carbonyl]amino}-2-(1,3-oxazol-5-yl)ethyl]ethanediamide hydrochloride]
